This experiment concerns the target Tyrosine-protein kinase BTK (Homo sapiens, UniProt Q06187). The experiment in a line: In Vitro Kinase Assay: The purpose of the BTK in vitro assay is to determine compound potency against BTK through the measurement of IC50. Compound inhibition is measured after monitoring the amount of phosphorylation of a fluorescein-labeled polyGAT peptide (Invitrogen PV3611) in the presence of active BTK enzyme (Upstate 14-552), ATP, and inhibitor. The BTK kinase reaction was done in a black 96 well plate (costar 3694). For a typical assay, a […] aliquot of a ATP/peptide master mix (final concentration; […], polyGAT 100 nM) in kinase buffer (10 mM Tris-HCl pH 7.5, 10 mM MgCl2, 200 μM Na3PO4, 5 mM DTT, 0.01% Triton X-100, and 0.2 mg/ml casein) is added to each well. Next, […] of a 4-fold, 40× compound titration in 100% DMSO solvent is added, followed by adding 15 μL of BTK enzyme mix in 1× kinase buffer (with a final concentration of 0.25 nM). The assay is incubated for 30 minutes before being stopped with 28 μL of a 50 mM EDTA solution. Aliquots (5 μL) of the kinase reaction are transferred to a low volume white 384 well plate (Corning 3674), and 5 μL of a 2× detection buffer (Invitrogen PV3574, with 4 nM Tb-PY20 antibody, Invitrogen PV3552) is added. The plate is covered and incubated for 45 minutes at room temperature. Time resolved fluorescence (TRF) on Molecular Devices M5 (332 nm excitation; 488 nm emission; 518 nm fluorescein emission) is measured. […].

This is an account of results in ChEMBL document CHEMBL5728238, “Inhibiting agents for Bruton's tyrosine kinase” (2021).

Molecules are shown by their SMILES.

Tyrosine-protein kinase BTK, sequence (Q06187 whole entry): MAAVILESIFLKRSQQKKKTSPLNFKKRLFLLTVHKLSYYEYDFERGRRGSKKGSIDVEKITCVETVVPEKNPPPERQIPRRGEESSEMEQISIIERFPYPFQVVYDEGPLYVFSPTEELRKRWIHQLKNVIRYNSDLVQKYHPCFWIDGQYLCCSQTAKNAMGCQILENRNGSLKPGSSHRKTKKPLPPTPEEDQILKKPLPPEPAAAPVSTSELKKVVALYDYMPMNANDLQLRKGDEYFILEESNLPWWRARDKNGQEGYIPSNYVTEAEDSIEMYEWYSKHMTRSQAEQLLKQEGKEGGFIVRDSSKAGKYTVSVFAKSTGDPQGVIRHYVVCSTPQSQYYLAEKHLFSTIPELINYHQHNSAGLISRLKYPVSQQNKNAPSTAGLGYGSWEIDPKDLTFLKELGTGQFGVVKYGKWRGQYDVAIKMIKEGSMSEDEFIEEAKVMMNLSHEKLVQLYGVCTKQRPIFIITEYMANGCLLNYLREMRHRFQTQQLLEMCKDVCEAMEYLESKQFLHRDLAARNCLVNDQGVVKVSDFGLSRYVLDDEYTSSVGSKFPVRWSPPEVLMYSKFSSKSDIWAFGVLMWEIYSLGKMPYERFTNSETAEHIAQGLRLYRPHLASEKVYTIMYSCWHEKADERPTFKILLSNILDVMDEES

For the molecule `Cc1cc(-c2ncnc(Nc3cnn(C)c3)n2)ccc1CNC(=O)c1cc(C(C)(C)C)on1`, the IC50 is under 1 nM.

On to `Cc1cc(-c2ncnc(Nc3cnn(C)c3)n2)ccc1CNC(=O)c1noc(C2[C@@H](C)[C@H]2C)n1` (some centres not stated), for which the IC50 was under 1 nM.

The IC50 is the concentration that gives 50% inhibition.
